Assay results taken from BigSolDB 2.1.

OC[C@H]1O[C@@H](Oc2ccc(O)cc2)[C@H](O)[C@@H](O)[C@@H]1O
solubility (mole fraction)
Details	283.15 K	288.15 K	293.15 K	298.15 K	303.15 K	308.15 K	313.15 K	318.15 K	323.15 K
in 2-butanone	0.000188	0.000212	0.000243	0.00026	0.000297	0.000346	0.000418	0.00045	0.000524
in acetone	0.000686	0.00071	0.000773	0.000799	0.000867	0.00101	0.00118	0.00127	0.00143
in acetonitrile	8.17e-05	9.3e-05	0.000124	0.000149	0.000163	0.000211	0.000236	0.000318	0.000362
in ethanol	0.00263	0.00268	0.0029	0.00309	0.00353	0.00419	0.00477	0.00551	0.0059
in ethyl acetate	8.03e-05	8.14e-05	8.6e-05	9.09e-05	9.62e-05	0.000104	0.000112	0.000124	0.000156
in ethylene glycol	0.0471	0.0486	0.0507	0.0527	0.0549	0.0572	0.0601	0.0631	0.0666
in isobutanol	0.000225	0.000279	0.000303	0.000394	0.000454	0.000572	0.000668	0.000911	0.00104
in isopropanol	0.000727	0.000858	0.0009	0.00108	0.00125	0.0016	0.00191	0.00216	0.00261
in methanol	0.0113	0.0117	0.0123	0.0132	0.0143	0.016	0.0176	0.0191	0.0221
in methyl acetate	0.000112	0.000129	0.00014	0.000154	0.000185	0.000239	0.000277	0.000353	0.00041
in n-butanol	0.000376	0.000499	0.000566	0.000699	0.00075	0.001	0.00115	0.00131	0.00144
in n-propanol	0.000764	0.000889	0.00103	0.00115	0.00128	0.00155	0.00181	0.00207	0.0023
